Tested on: PMN (neutrophils)
Assay: Zymosan peritonitis model, number of PMN (neutrophils) in intraperitoneal cells by FACS
Type: in vivo, C57BL/6J mice
Conditions: for PMN (mean % suppression) / Inhibition rate (PMN inhibition): caudal vein, zymosan 1 mg i.p.; for PMN (mean % suppression): two hours; for suppression of neutrophil infiltration: caudal vein (FIG. 4C); for Inhibition rate (PMN inhibition): cells recovered two hours later
Description: [FIG. 4A] […] The model was produced by inducing acute peritonitis by intraperitoneal administration of 1 mg of zymosan to C57BL6 mice. From the left, 17,18-EpETE, 5-hydroxy-17,18-epoxy-ETE (5hy-17,18-EpETE), 8-hydroxy-17,18-epoxy-ETE (8hy-17,18-EpETE), 12-hydroxy-17,18-epoxy-ETE (12hy-17,18-EpETE), and 15-hydroxy-17,18-epoxy-ETE (15hy-17,18-EpETE) respectively ([…]) were injected from a caudal vein of the mouse, and peritonitis was initiated by intraperitoneal administration of 1 mg of zymosan five minutes later. Intraperitoneal cells were recovered two hours later, and the results obtained by analyzing the number of PMN (neutrophils) of each by FACS are shown. […]
Zymosan peritonitis induced by intraperitoneal administration of zymosan, which is a cell wall component of yeast, was used as the inflammation model. This model is suited to the analysis of cytokines and eicosanoids since the intraperitoneal exudate can be recovered.
Zymosan A (Wako Pure Chemical Industries) was suspended in physiological saline to make 1 mg/mL and warmed for 30 minutes at 37° C. The zymosan A solution was then vortexed and returned to room temperature. A compound synthesized in a previous example was placed in a 1.5 mL tube and completely dried by driving off the solvent by nitrogen. It was then dissolved by adding physiological saline. […] Groups injected with only physiological saline (saline) or dexamethasone (10 μg/mouse), which is an anti-inflammatory steroid, were used as controls. Approximately two minutes later, 1 mL of zymosan A solution was administered intraperitoneally. Two hours later, cells that had exuded into the peritoneal cavity were recovered by tube by PBS, and the cells were counted. This tube was then centrifuged for five minutes at 1200 rpm, 4° C., and the supernatant was discarded. The precipitate (pellets) was suspended in PBS, and population analysis was performed by FACS three-color stain.
Peritoneal cells were adjusted to 2.5×10^6 cells/mL, and 200 μL was placed in a 5 mL round-bottomed tube (BD Falcon) (5×10^5 cells/tube). A quantity of 1 μL/tube of anti-mouse CD16/CD32 antibody (0.5 mg/mL; BD Biosciences) was added to this tube and incubated for 10 minutes at room temperature. Staining antibody mix (1.0 μL/sample of FITC-bound anti-mouse F4/80 antibody (0.5 mg/mL; eBioscience), 0.5 μL of PE-bound anti-mouse Ly-6G&Ly-6C antibody (0.2 mg/mL; eBioscience), and 0.5 μL of perCP-Cy5.5-bound anti-mouse CD11b antibody (0.2 mg/mL; eBioscience) per sample prepared by dilution by 50 μL of PBS) was added to this tube in a quantity of 50 μL/tube and incubated for 15 minutes at room temperature shielded from light. Measurement was performed by an FACS Calibur (BD Biosciences).

[1] = 100 ng, Table 6 (FIG. 4D), mean of 6-11 studies
[2] = 100 ng, Table 3 (FIG. 4A), mean of 4-6 studies
[3] = 100 ng, Table 4 (FIG. 4B), mean of 3-4 studies
[4] = 100 ng, Table 5 (FIG. 4B), mean of 3-4 studies

14-hydroxy-19,20-epoxy-docosatetraenoic acid [14hy-19,20-EpDTE]
suppression of neutrophil infiltration, result in words (100 ng): statistically significant effects | PMN (mean % suppression) [1]: 15.35%

CCC1OC1CC(O)/C=C/C=C\C/C=C\C/C=C\CCCC(=O)O (stereo not shown) [15-hy-17,18-EpETE, 15-hydroxy-17,18-epoxy-eicosatetraenoic acid]
PMN (mean % suppression) [2]: 42.9%

CCC1OC1C/C=C\C/C=C\C=C\C(O)C/C=C\CCCCCC(=O)O (stereo not shown) [10hy-19,20-EpDTE, 10-hydroxy-19,20-epoxy-docosatetraenoic acid]
suppression of neutrophil infiltration, result in words (100 ng): tendency toward suppression | PMN (mean % suppression) [1]: 8.27%

17-hydroxy-19,20-epoxy-docosatetraenoic acid [17hy-19,20-EpDTE]
suppression of neutrophil infiltration, result in words (100 ng): statistically significant effects | PMN (mean % suppression) [1]: 23.28%

CCC1OC1C/C=C\C/C=C\C=C\C(O)C/C=C\CCCC(=O)O (stereo not shown) [8-hy-17,18-EpETE, 8-hydroxy-17,18-epoxy-eicosatetraenoic acid]
PMN (mean % suppression) [2]: 10.4%

CCC1OC1CC=CCC(O)C=CC=CCC=CCCCC(=O)O (stereo not shown) [12hy-17,18-EpETE, 12-hydroxy-17,18-epoxy-eicosatetraenoic acid]
suppression of neutrophil infiltration (1 ng/mouse): 30% | suppression of neutrophil infiltration (10 ng/mouse): approximately 40% | PMN (mean % suppression) [2]: 48.4% | neutrophil-suppressing activity compared with dexamethasone control (1 or 10 ng/mouse versus 10 μg/mouse of dexamethasone): equivalent to or better than | Inhibition rate (PMN inhibition) (dose 0.44 ng): 28.8% | Inhibition rate (PMN inhibition) (dose 4.35 ng): 39.3% | Inhibition rate (PMN inhibition) (dose 43.48 ng): 56.3% | Inhibition rate (PMN inhibition) (dose 434.8 ng): 49.8% | dose dependence of PMN inhibition (doses 0.44 to 434.3 ng (FIG. 4C)): dose-dependent

CCC1OC1CC=CCC=CCC=CC=CC(O)CCCC(=O)O (stereo not shown) [5-hy-17,18-EpETE, 5-hydroxy-17,18-epoxy-eicosatetraeonic acid]
PMN (mean % suppression) [2]: 50.6%

CCC1OC1CC=CCC=CCC=CCC=CC=CC(O)CCC(=O)O (stereo not shown) [4-hy-19,20-EpDPE, 4-hydroxy-19,20-epoxy-docosapentaenoic acid]
suppression of neutrophil infiltration, result in words (100 ng): tend to suppress neutrophil infiltration | PMN (mean % suppression) [3]: 2.1% | PMN (mean % suppression) (500 ng, Table 4 (FIG. 4B)): 0.0%

CCC1OC1CC(O)C=CC=CCC=CCC=CCC=CCCC(=O)O (stereo not shown) [17-hy-19,20-EpDPE, 17-hydroxy-19,20-epoxy-docosapentaenoic acid]
PMN (mean % suppression) [4]: 59.5%

CCC1OC1CC=CCC=CCC=CC=CC(O)CC=CCCC(=O)O (stereo not shown) [7-hy-19,20-EpDPE, 7-hydroxy-19,20-epoxy-docosapentaenoic acid]
PMN (mean % suppression) [3]: 0.0% | suppression of neutrophil infiltration, result in words (500 ng): tend to suppress neutrophil infiltration | PMN (mean % suppression) (500 ng, Table 4 (FIG. 4B)): 8.7%

CCC1OC1C/C=C\C/C=C\C/C=C\C/C=C\CCCC(=O)O (stereo not shown) [17,18-EpETE, 17,18-epoxyeicosatetraenoic acid, reference compound]
PMN (mean % suppression) [2]: 0.0%

CCC1OC1CC=CCC(O)C=CC=CCC=CCC=CCCC(=O)O (stereo not shown) [14-hy-19,20-EpDPE, 14-hydroxy-19,20-epoxy-docosapentaeonic acid]
PMN (mean % suppression) [4]: 57.3%

CCC1OC1CC=CC=CC(O)CC=CCC=CCC=CCCC(=O)O (stereo not shown) [13-hy-19,20-EpDPE, 13-hydroxy-19,20-epoxy-docosapentaenoic acid]
PMN (mean % suppression) [4]: 12.0%

CCC1OC1CC=CCC=CCC=CCC=CCC=CCCC(=O)O (stereo not shown) [19,20-EpDPE, 19,20-epoxydocosapentaenoic acid, reference compound]
PMN (mean % suppression) [3]: 0.0% | PMN (mean % suppression) [4]: 0.0%

CCC1OC1CC=CCC=CC=CC(O)CC=CCC=CCCC(=O)O (stereo not shown) [10-hy-19,20-EpDPE, 10-hydroxy-19,20-epoxy-docosapentaenoic acid]
PMN (mean % suppression) [4]: 20.7%

From patent US9238634B2, “Anti-inflammatory metabolite derived from omega-3-type fatty acid” (THE UNIVERSITY OF TOKYO, priority 2010, dated 2016)
